Laboratory results: patent publication US20030153513A1, “Preventives or remedies for obesity or fatty liver” (priority 2000, published 2003)

What was measured:
Type in all cases: in vivo
C57BL/6J mice [1] = assay: Test Example 1: body weight increase, non-obesity normal mice, 12 weeks oral; conditions: non-obesity normal C57BL/6J mice, 10 mg/kg/day oral, FIG. 1-A
Protocol: (§1) In the test example, each 10 of the male KKA^y/Ta Jcl mice and C57BL/6J mice aged 10 weeks were used as obesity model mice and non-obesity normal model mice, respectively. The compound of Preparation 1 was orally administered to the animals at 10 mg/kg/day for 12 weeks continuously, and the body weights of the animals were daily measured. Four hours after the final administration of the compound, the animals were sacrificed, and the levels of triglyceride in the liver tissues were determined.
(§2) The compound of Preparation 1 had been suspended in an aqueous solution of 5% gum arabic (Nakarai Chemcial, Lot. M5E5329) to provide a 0.1% suspension for use. As a control, only a vehicle (5% aqueous gum arabic solution) was administered as well, and the triglyceride level was also determined.

KKA^y/Ta Jcl mice [2] = assay: Test Example 1: body weight increase, obesity model mice, 12 weeks oral; conditions: 10 mg/kg/day oral, FIG. 1-B
Protocol: as §1, §2

C57BL/6J mice [3] = assay: Test Example 1: triglyceride level in liver tissue, normal mice, 12 weeks oral; conditions: oral administration for 12 weeks, 10 mg/kg/day, 4 h after final dose
Protocol: as §1, §2

KKA^y/Ta Jcl mice [4] = assay: Test Example 1: triglyceride level in liver tissue, obesity model mice, 12 weeks oral; conditions: 10 mg/kg/day
Protocol: as §1, §2

KKAy/Ta Jcl mice = assay: Test Example 2: triglyceride level in liver tissue, obesity model mice, 2 weeks
Protocol: In a similar way to Test Example 1, the male KKAy/Ta Jcl mice aged 10 weeks were orally administered with the compound of Preparation 1 at 10 mg/kg/day, and fed a diet containing 3% cholestyramine (corresponding to about 4 g/kg/day) for two weeks continuously, and the level of triglyceride in the liver tissue was determined (eight animals per group). Also, the control was administered with only a vehicle (5% aqueous gum arabic solution).

## CCC(CC)CC(=O)c1c(C(=O)OC)c(-c2ccc(OC)c(OC)c2)c2c(OC)c(OC)c(OC)cc2c1O [Compound of Prep. 1, Methyl 1-(3,4-dimethoxyphenyl)-3-(3-ethylvalelyl)-4-hydroxy-6,7,8-trimethoxy-2-naphthoate]
C57BL/6J mice [1]
  rate of increase in body weight compared with the control: no significant difference
KKA^y/Ta Jcl mice [2]
  inhibition of weight gain: significant inhibition of weight gain
C57BL/6J mice [3]
  triglyceride (liver tissue): 13.2 ± 1.2 mg/g
KKA^y/Ta Jcl mice [4]; 12 weeks oral, as shown in Table 1
  triglyceride level in the liver tissue compared to the control (in words): significant decrease
KKA^y/Ta Jcl mice [4]; KKA^y mice, oral administration for 12 weeks, 4 h after final dose
  triglyceride (liver tissue): 74.7 ± 7.4 mg/g
KKAy/Ta Jcl mice; 2 weeks, as shown in Table 2
  triglyceride level in the liver tissue compared to the control (in words): significant decrease
KKAy/Ta Jcl mice; administration for 2 weeks, Prep. 1 10 mg/kg/day oral, cholestyramine 3% in diet (about 4 g/kg/day)
  triglyceride (liver tissue): 49.2 ± 7.7 mg/g
